# Experimental data: patent publication US10556865B2, “Synergistic herbicidal composition containing certain pyridine or pyrimidine carboxylic acids and certain cereal and rice herbicides” (Dow AgroSciences, LLC, priority 2007, dated 2020)
# Several values for one entry are separate records, joined by “and”; a condition that tells them apart may be missing. Identical values can stand only once. Like-named read-outs stand apart in the source and are kept apart here.
# Assays:
# Assay type in all cases: in vivo
# [1] = system: Russian thistle (Salsola iberica L; SASKR); assay: Postemergence herbicidal activity of mixtures in cereal crops (greenhouse, visual injury)
# In short: (§1)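 Injury ratings (0–100%) taken 20–22 days post-spray versus solvent-blank controls. Treatment: 187 L/ha track spray, 2nd–3rd leaf plants, Compound A/B with second cereal herbicide.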
# [2] = system: black mustard (Brassica nigra L; BRSNI); assay: as above; conditions: Brassica, post-emergence, read-out: BRSNI Ob
# In short: as §1
# [3] = system: cut-leaf geranium (Geranium dissectum L; GERDI); assay: as above
# In short: as §1
# [4] = system: ivy-leaved speedwell (Veronica hederifolia L; VERHE); assay: as above
# In short: as §1
# [5] = system: rigid ryegrass (Lolium rigidum L; LOLRI); assay: as above
# In short: as §1
# [6] = system: wild buckwheat (Polygonum convolvulus L; POLCO); assay: as above
# In short: as §1
# [7] = system: Canada thistle (Cirsium arvense L; CIRAR); assay: as above
# In short: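 Weeds grown in greenhouse (~14 h photoperiod, ~18/17 °C day/night) to second–third true leaf stage, sprayed postemergence with compound and second cereal herbicide alone or combined; solvent-blank controls. Injury scored visually after 20-22 days, 0–100% (complete kill); expected mixture activity = A+B−(A×B/100).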
# [8] = system: green foxtail (Setaria viridis L; SETVI); assay: as above
# In short: as §1
# [9] = system: lamb's-quarters (Chenopodium album L; CHEAL); assay: as above
# In short: as §1
# [10] = system: Scirpus maritimus L. (SCPMA); assay: Postemergence herbicidal mixtures for weed control in direct seeded rice (greenhouse, visual % injury); conditions: SCPMA
smiles,measurement,setting,value
"COc1c(Cl)ccc(-c2cc(N)c(Cl)c(C(=O)O)n2)c1F [Compound A TEA, 4-amino-3-chloro-6-(4-chloro-2-fluoro-3-methoxyphenyl)pyridine-2-carboxylic acid]",SASKR Ob,[1]; 8.75 g/ha alone,80%
same,SASKR Ob,[1]; 17.5 g/ha alone,84%
same,SASKR Ob,[1]; 35 g/ha alone,87%
same,SASKR Ob,[1]; 70 g/ha alone,93%
same,pest or weed control at 8.75 g/ha,[2]; 8.75 g/ha alone,70%
same,pest or weed control at 8.75 g/ha,[2]; 8.75 g/ha,70%
same,pest or weed control at 17.5 g/ha,[2]; 17.5 g/ha alone,91%
same,pest or weed control at 17.5 g/ha,[2]; 17.5 g/ha,91%
same,pest or weed control at 35 g/ha,[2]; 35 g/ha alone,98%
same,pest or weed control at 35 g/ha,[2]; 35 g/ha,98%
same,pest or weed control at 70 g/ha,[2]; 70 g/ha alone,99%
same,pest or weed control at 70 g/ha,[2]; 70 g/ha,99%
same,GERDI Ob,[3]; 8.75 g/ha,50%
same,GERDI Ob,[3]; 8.75 g/ha alone,50% and 38%
same,GERDI Ob,[3]; 17.5 g/ha,55%
same,GERDI Ob,[3]; 17.5 g/ha alone,55% and 50%
same,GERDI Ob,[3]; 35 g/ha,65%
same,GERDI Ob,[3]; 35 g/ha alone,65% and 80%
same,GERDI Ob,[3]; 70 g/ha alone,78% and 85%
same,VERHE Ob,[4]; 8.75 g/ha,10%
same,VERHE Ob,[4]; 17.5 g/ha,20%
same,VERHE Ob,[4]; 35 g/ha,50%
same,VERHE Ob,[4]; 70 g/ha,75%
same,LOLRI Ob,"[5]; 35 g/ha, Table 12",0%
same,LOLRI,"[5]; 35 g/ha, Table 13",0%
same,LOLRI Ob,"[5]; 35 g/ha, Table 17",0%
same,LOLRI,"[5]; 35 g/ha, Table 19",0%
same,LOLRI Ob,"[5]; 70 g/ha, Table 12",0%
same,LOLRI,"[5]; 70 g/ha, Table 13",0%
same,LOLRI Ob,"[5]; 70 g/ha, Table 17",0%
same,LOLRI,"[5]; 70 g/ha, Table 19",0%
same,LOLRI Ob,"[5]; 140 g/ha, Table 12",10%
same,LOLRI,"[5]; 140 g/ha, Table 13",10%
same,LOLRI Ob,"[5]; 140 g/ha, Table 17",10%
same,LOLRI,"[5]; 140 g/ha, Table 19",10%
same,POLCO Ob,[6]; 8.75 g/ha,90%
same,POLCO Ob,[6]; 8.75 g/ha alone,90% and 76%
same,POLCO Ob,[6]; 17.5 g/ha,93%
same,POLCO Ob,[6]; 17.5 g/ha alone,93% and 88%
same,POLCO Ob,[6]; 35 g/ha,98%
same,POLCO Ob,[6]; 35 g/ha alone,98% and 96%
same,POLCO Ob,[6]; 70 g/ha,99%
same,POLCO Ob,[6]; 70 g/ha alone,99%
same,CIRAR Ob,[7]; 35 g/ha,50%
same,CIRAR Ob,[7]; 70 g/ha,60%
same,CIRAR Ob,[7]; 140 g/ha,65%
"COC(=O)c1nc(-c2ccc(Cl)c(OC)c2F)cc(N)c1Cl [Compound A Methyl, 4-amino-3-chloro-6-(4-chloro-2-fluoro-3-methoxyphenyl)pyridine-2-carboxylic acid methyl ester]",SETVI Ob,"[8]; 17.5 g/ha, Table 1",70%
same,SETVI Ob,"[8]; 35 g/ha, Table 1",75%
same,SETVI Ob,"[8]; 35 g/ha, Table 7",77%
same,SETVI Ob,"[8]; 70 g/ha, Table 1",80%
same,SETVI Ob,"[8]; 70 g/ha, Table 7",82%
same,SETVI Ob,"[8]; 140 g/ha, Table 7",91%
same,CHEAL Ob,[9]; 17.5 g/ha,90%
same,CHEAL Ob,[9]; 35 g/ha,90%
same,CHEAL Ob,[9]; 70 g/ha,95%
same,% Injury Ob,[10]; 4.38 g/ha alone,0%
same,% Injury Ob,[10]; 8.75 g/ha alone,10%
